Experimental data reported in ChEMBL document CHEMBL1151502, “New base-altered adenosine analogues: Synthesis and affinity at adenosine A1 and A2A receptors” (Bioorg Med Chem Lett, 1997).

Key:
[1] = molecular target: Adenosine receptor A2a (Rattus norvegicus, UniProt P30543); assay: Displacement of [3H]-CGS- 21680 from Adenosine A2 receptor of rat striatal membranes; assay type: cell membranes, Membrane
[2] = molecular target: T1, Adenosine receptor A1 (Rattus norvegicus, UniProt P25099); assay: Binding affinity at Adenosine A1 receptor in rat brain membranes by [3H](R)-PIA displacement.; assay type: cell membranes
T1 sequence (P25099 whole entry): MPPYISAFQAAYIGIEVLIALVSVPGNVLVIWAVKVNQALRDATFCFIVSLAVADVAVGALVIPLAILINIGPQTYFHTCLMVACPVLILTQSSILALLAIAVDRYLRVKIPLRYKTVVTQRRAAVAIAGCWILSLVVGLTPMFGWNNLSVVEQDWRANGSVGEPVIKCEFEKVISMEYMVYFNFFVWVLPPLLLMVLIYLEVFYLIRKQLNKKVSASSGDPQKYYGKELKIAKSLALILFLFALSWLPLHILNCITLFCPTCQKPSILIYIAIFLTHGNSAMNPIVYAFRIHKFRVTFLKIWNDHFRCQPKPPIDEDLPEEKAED

[3] = molecular target: Adenosine receptors; A1 & A2a (Rattus norvegicus) (UniProt P25099+P30543); assay: Selective ratio of A1 receptor to A2A receptor; assay type: protein assay
Chain of Adenosine receptors; A1 & A2a (Rattus norvegicus) (P30543 whole entry, looked up, one chain of several): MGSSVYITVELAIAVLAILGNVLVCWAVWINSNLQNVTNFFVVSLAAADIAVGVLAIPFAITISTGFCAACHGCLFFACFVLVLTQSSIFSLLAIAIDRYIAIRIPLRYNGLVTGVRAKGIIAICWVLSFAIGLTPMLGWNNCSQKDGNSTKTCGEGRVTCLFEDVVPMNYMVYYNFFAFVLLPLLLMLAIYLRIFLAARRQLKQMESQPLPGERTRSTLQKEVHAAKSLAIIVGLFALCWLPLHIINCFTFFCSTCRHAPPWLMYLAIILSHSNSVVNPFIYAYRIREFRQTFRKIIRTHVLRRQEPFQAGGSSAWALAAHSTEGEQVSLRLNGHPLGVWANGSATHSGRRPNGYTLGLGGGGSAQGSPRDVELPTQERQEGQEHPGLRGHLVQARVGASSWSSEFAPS

[4] = molecular target: Adenosine receptor A2a (Rattus norvegicus) (UniProt P30543); assay: Displacement of [3H]-CGS- 21680 from Adenosine A2 receptor in rat striatal membranes at 10e-5 M; assay type: cell membranes; conditions: Membrane
Chain of Adenosine receptor A2a (Rattus norvegicus) (P30543 whole entry): as the sequence (P30543 whole entry, looked up, one chain of several) above

[5] = molecular target: Adenosine receptor A1 (Rattus norvegicus) (UniProt P25099); assay: Binding affinity for Adenosine A1 receptor
[6] = molecular target: Adenosine receptor A2a (Rattus norvegicus) (UniProt P30543); assay: Displacement of [3H]-CGS- 21680 from Adenosine A2 receptor in rat striatal membranes at 10e-4 M; assay type: cell membranes; conditions: Membrane

Chain of Adenosine receptor A2a (P30543 whole entry): as the sequence (P30543 whole entry, looked up, one chain of several) above

Ki [1] [nM]	Ki [2] [nM]	Structure (SMILES)	also measured
10400	452	OC[C@@H](Cc1ccccc1)Nc1nc(Cl)nc2c1ncn2C1O[C@H](CO)[C@@H](O)[C@H]1O (stereo not given in full)	
390	2.7	CC(Nc1ncnc2c1ncn2[C@@H]1O[C@H](CO)[C@@H](O)[C@H]1O)[C@@H](O)c1ccccc1 (stereo not given in full)	Ratio [3]: 144
	139	CC(C)C[C@@H](CO)Nc1ncnc2c1ncn2C1O[C@H](CO)[C@@H](O)[C@H]1O (stereo not given in full)	Displacement [4]: < 10%
1900	4.89	OC[C@H]1O[C@@H](n2cnc3c(NN4CCOCC4)nc(Cl)nc32)[C@H](O)[C@@H]1O	Ki [5]: 8 nM
492	2.41	OC[C@H](Cc1ccccc1)Nc1nc(Cl)nc2c1ncn2C1O[C@H](CO)[C@@H](O)[C@H]1O (stereo not given in full)	
19400	113	OC[C@H]1OC(n2cnc3c(NN4CCOCC4)nc(I)nc32)[C@H](O)[C@@H]1O (stereo not given in full)	
		OC[C@H]1O[C@@H](n2cnc3c(NN4CCCC4)ncnc32)[C@H](O)[C@@H]1O (stereo in doubt) [listing 1 of 2 here]	Ratio [3]: 350
	7.3	OC[C@H]1O[C@@H](n2cnc3c(NN4CCCCC4)ncnc32)[C@H](O)[C@@H]1O	Displacement [6]: 29%
8630	71	OC[C@H]1OC(n2cnc3c(NN4CCCCC4)nc(I)nc32)[C@H](O)[C@@H]1O (stereo not given in full)	
1360	23	OC[C@H](Cc1ccccc1)Nc1nc(I)nc2c1ncn2C1O[C@H](CO)[C@@H](O)[C@H]1O (stereo not given in full)	
	15500	OC[C@H]1OC(n2cnc3c(NN4CCOCC4)ncnc32)[C@H](O)[C@@H]1O (stereo not given in full)	Displacement [6]: 36%
	989	OC[C@@H](Cc1ccccc1)Nc1nc(I)nc2c1ncn2C1O[C@H](CO)[C@@H](O)[C@H]1O (stereo not given in full)	Displacement [6]: 49%
2800	8	OC[C@H]1O[C@@H](n2cnc3c(NN4CCCC4)ncnc32)[C@H](O)[C@@H]1O (stereo in doubt; 3)	
470		OC[C@H]1O[C@@H](n2cnc3c(NN4CCC(Sc5ccccc5)CC4)nc(Cl)nc32)[C@H](O)[C@@H]1O	Ratio [3]: 522
936	3.55	OC[C@H]1O[C@@H](n2cnc3c(NN4CCCCC4)nc(Cl)nc32)[C@H](O)[C@@H]1O	
2800	8	OC[C@H]1O[C@@H](n2cnc3c(NN4CCCC4)ncnc32)[C@H](O)[C@@H]1O (stereo in doubt) [listing 2 of 2 here]	
30300	224	CC(C)C[C@H](CO)Nc1ncnc2c1ncn2C1O[C@H](CO)[C@@H](O)[C@H]1O (stereo not given in full)	
